Patent publication US7342089B2, “Cyclic peptides for treatment for cachexia” (Palatin Technologies, Inc., priority 2002, dated 2008)
Positions of bridges follow the written chain, without caps; N, C: chain ends. Non-standard residues stand in square brackets, D forms with d. Residues, ends and D or L forms follow the SMILES beside them. 2Nal = N[C@@H](Cc1ccc2ccccc2c1)C(=O)O; d2Nal = N[C@H](Cc1ccc2ccccc2c1)C(=O)O; Nle = CCCC[C@H](N)C(=O)O

How the values were obtained:
[1] = biological target: T1, MC1-R (B-16 mouse melanoma cells) (Mus musculus, UniProt Q01727); experiment: cAMP assay for agonist/antagonist status, MC1-R; format: cell-based; details: for EC50: read-out: EC50 as to MC1-R
Method: Cells are incubated with the test peptides in the presence or absence of α-MSH for 1 hour at 37° C. cAMP levels in the cell lysates are measured using the EIA kit (Amersham). Data analysis and EC50 values are determined using nonlinear regression analysis with Prism Graph-Pad software.
The agonist/antagonist status with respect to MC1-R, MC4-R and MC5-R of certain peptides of the invention is determined. Antagonistic activity is determined by measuring the inhibition of α-MSH-induced or NDP-α-MSH-induced cAMP levels following exposure to the peptides as in the preceding descriptions.

[2] = biological target: T1, MC1-R (B-16 mouse melanoma cells); experiment: Competitive inhibition binding assay using [I125]-NDP-α-MSH, MC1-R; details: B-16 mouse melanoma cell membranes
Method: Each assay is conducted in triplicate.

rats = experiment: ICV feeding studies; format: in vivo, rat; details: lowest value of multiple tests, parentheses = decrease
Method: (§1) Change in food intake and body weight is evaluated for selected peptides. Rats with indwelling intracerebroventricular cannulas (ICV rats) are obtained from Hilltop Lab Animals, Inc. (Scottdale, Pa.). Animals are individually housed in conventional plexiglass hanging cages and maintained on a controlled 12 hour on/off light cycle. Water and powdered (LabDiet, 5P00 Prolab RMH 3000) or pelleted (Harlan Teklad 2018 18% Protein Rodent Diet) food is provided ad libitum. For 1 week before treatment, 24-hour food intake and body weight change is recorded to assess a baseline for the group during vehicle treatment. The rats are dosed ICV with vehicle or selected cyclic peptides (0.3-3 nmol). The changes in body weight and food intake for the 24 hour period after dosing are determined. The changes in body weight and food intake for the 48 hour and 72 hour periods after dosing are also measured to determine reversal of changes in body weight and food intake effects back to baseline levels.
A series of ICV feeding studies were conducted on rats. All animals were dosed on the first day with saline ICV, and given a pre-weighed food bowl with food weight recorded at 2 and 21 hours post-ICV injection. On day 2, animals were randomized based on the 21 hour food consumption, with animals eliminated due to low food consumption or food spills. […] Food weights were again recorded at 2, 4, 21 and 24 hours post-icv injection. In most instances, multiple different tests were conducted which each group containing between 8 and 12 members; the lowest value is shown below. Values are shown as percent increase (decrease) in aggregate food intake. “ND” means no test was conducted at that dose level.

hMC5-R = biological target: T2, hMC5-R (Homo sapiens, UniProt P33032); experiment: Competitive inhibition binding assay using [I125]-NDP-α-MSH, hMC5-R; details: HEK-293 membranes, read-out: Ki MC5-R
T2 construct: expressed in transfected cells; host or cells: HEK-293

hMC3-R = biological target: T3, hMC3-R (Homo sapiens, UniProt P41968); experiment: Competitive inhibition binding assay using [I125]-NDP-α-MSH, hMC3-R; details: HEK-293 membranes, read-out: Ki MC3-R
T3 construct: expressed in transfected cells; host or cells: HEK-293

hMC3-R (HEK-293 cells) = biological target: T4, hMC3-R (HEK-293 cells) (Homo sapiens, UniProt P41968); experiment: cAMP assay for agonist/antagonist status and functional antagonism, MC3-R; format: cell-based; details: for Kb: read-out: pA2 value as to MC3-R (converted)
T4 construct: expressed in transfected cells; host or cells: HEK-293

hMC4-R (HEK-293 cells) = biological target: T5, hMC4-R (HEK-293 cells) (Homo sapiens, UniProt P32245); experiment: cAMP assay for agonist/antagonist status and functional antagonism, MC4-R; format: cell-based; details: for agonist/antagonist status as to MC4-R: cAMP assay; for Kb: functional antagonism, Schild's analysis vs NDP-α-MSH, read-out: pA2 value as to MC4-R (converted)
T5 construct: expressed in transfected cells; host or cells: HEK-293

hMC4-R = biological target: T6, hMC4-R (Homo sapiens, UniProt P32245); experiment: Competitive inhibition binding assay using [I125]-NDP-α-MSH, hMC4-R; details: HEK-293 membranes, read-out: Ki MC4-R
T6 construct: expressed in transfected cells; host or cells: HEK-293

male Sprague-Dawley rats = experiment: IV food intake and body weight change; format: in vivo, rat; details: 1 mg/kg IV, 24 hour period (FIG. 1)
Method: as §1, with “peptides. Male Sprague-Dawley rats” for “peptides. Rats with indwelling intracerebroventricular cannulas (ICV rats)”, “from Taconic (Germantown, N.Y.).” for “from Hilltop Lab Animals, Inc. (Scottdale, Pa.).”, “dosed IV or IP” for “dosed ICV”, “selected” for “selected cyclic”, “peptides (0.5-3 mg/kg).” for “peptides (0.3-3 nmol).”, “to determined” for “to determine”
Briefly, male Sprague-Dawley rats (300-350 g) were individually housed in shoe box cages with a 12 hr light/dark period. Food intake and body weights were monitored for 24 hours prior to the start of the study. Rats were randomized by body weight and then dosed IV just before lights-off with the compound of Example 12 or the same volume of vehicle. A pre-weighed amount of food was provided and food intake was determined at 2, 4, 20 and 24 hours. […]

T6 sequence (P32245 whole entry): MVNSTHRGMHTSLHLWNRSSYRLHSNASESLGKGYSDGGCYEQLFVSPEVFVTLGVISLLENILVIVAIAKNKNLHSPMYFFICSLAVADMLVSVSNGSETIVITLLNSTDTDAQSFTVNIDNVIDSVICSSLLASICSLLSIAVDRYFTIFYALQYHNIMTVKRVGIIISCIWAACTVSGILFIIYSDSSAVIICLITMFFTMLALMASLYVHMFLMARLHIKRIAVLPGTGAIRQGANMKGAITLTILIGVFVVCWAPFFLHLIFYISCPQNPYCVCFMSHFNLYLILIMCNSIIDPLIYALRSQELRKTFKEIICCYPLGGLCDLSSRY
T5 sequence (P32245 whole entry): as above
T3 sequence (P41968 whole entry): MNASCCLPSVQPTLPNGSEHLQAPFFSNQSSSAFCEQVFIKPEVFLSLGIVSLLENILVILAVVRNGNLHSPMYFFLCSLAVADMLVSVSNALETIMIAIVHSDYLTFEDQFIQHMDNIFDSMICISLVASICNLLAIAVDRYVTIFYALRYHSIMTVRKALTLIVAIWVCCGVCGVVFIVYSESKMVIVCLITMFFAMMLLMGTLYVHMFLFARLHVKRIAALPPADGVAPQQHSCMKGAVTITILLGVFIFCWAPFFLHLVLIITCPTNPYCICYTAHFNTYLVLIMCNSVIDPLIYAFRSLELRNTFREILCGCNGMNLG
T4 sequence (P41968 whole entry): as above
T1 sequence (Q01727 whole entry): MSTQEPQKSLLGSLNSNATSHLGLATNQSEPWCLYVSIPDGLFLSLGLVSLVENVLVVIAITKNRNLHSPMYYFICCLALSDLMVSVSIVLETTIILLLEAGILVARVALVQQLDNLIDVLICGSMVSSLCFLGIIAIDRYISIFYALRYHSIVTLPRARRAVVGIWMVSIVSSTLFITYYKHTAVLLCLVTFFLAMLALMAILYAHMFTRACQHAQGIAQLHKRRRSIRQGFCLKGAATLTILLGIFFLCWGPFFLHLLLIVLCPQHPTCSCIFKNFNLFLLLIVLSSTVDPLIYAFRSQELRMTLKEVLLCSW
T2 sequence (P33032 whole entry): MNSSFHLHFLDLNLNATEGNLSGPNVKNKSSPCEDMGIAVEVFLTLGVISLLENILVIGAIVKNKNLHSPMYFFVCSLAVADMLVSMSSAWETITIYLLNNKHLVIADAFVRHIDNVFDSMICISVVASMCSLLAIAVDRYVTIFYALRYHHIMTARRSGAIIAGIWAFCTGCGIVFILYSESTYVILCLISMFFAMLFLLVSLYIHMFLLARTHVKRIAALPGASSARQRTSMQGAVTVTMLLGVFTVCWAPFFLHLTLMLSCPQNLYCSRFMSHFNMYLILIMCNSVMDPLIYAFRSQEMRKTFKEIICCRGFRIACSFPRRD

SMILES	agonist/antagonist status as to MC1-R [1]	EC50 [1] [nM]	Ki [2] [nM]	Ki (hMC5-R) [nM]	Ki (hMC3-R) [nM]	agonist/antagonist status as to MC3-R (hMC3-R (HEK-293 cells); cAMP assay)	Kb (hMC3-R (HEK-293 cells)) [nM]	agonist/antagonist status as to MC4-R (hMC4-R (HEK-293 cells))	Kb (hMC4-R (HEK-293 cells)) [nM]	Ki (hMC4-R) [nM]	EC50 (hMC3-R (HEK-293 cells); cAMP assay, read-out: EC50 as to MC3-R) [nM]	Percent Increase (Decrease) In Aggregate Food Intake After ICV Administration of Peptide Compared to Vehicle (Saline) (rats; 1 nmol) [%]	agonist/antagonist status at MC1-R ([1]; peptide at 1 μM concentration)	Percent Increase (Decrease) In Aggregate Food Intake After ICV Administration of Peptide Compared to Vehicle (Saline) (rats; 0.3 nmol) [%]	cumulative food intake compared to vehicle (male Sprague-Dawley rats)
CNC(=O)[C@@H]1CCCCNC(=O)C[C@H](NC(C)=O)C(=O)N[C@@H](Cc2c[nH]c3ccccc23)C(=O)N[C@H](Cc2ccc3ccccc3c2)C(=O)N[C@@H](CCCNC(=N)N)C(=O)N[C@@H](Cc2ccc3ccccc3c2)C(=O)N1 [Example 19, Ac-cyclo(-Asp-Trp-D-Nal 2-Arg-Nal 2-Lys)-NH—CH3] (Ac-DW[d2Nal]R[2Nal]K-NHMe; lactam 1-6)	–	–	643	6	3	antagonist	8.51	antagonist	1.26	0.06	–	32	inactive	28	–
CC(=O)N[C@H]1CC(=O)NCCCC[C@@H](C(=O)O)NC(=O)[C@H](Cc2ccc3ccccc3c2)NC(=O)[C@H](CCCNC(=N)N)NC(=O)[C@@H](Cc2ccc3ccccc3c2)NC(=O)[C@H](Cc2c[nH]cn2)NC1=O [Example 15, Ac-cyclo(-Asp-His-D-Nal 2-Arg-Nal 2-Lys)-OH] (Ac-DH[d2Nal]R[2Nal]K-OH; lactam 1-6)	partial agonist	2150	143	89	6	antagonist	–	antagonist	10	2	–	32	–	–	–
CC(=O)N[C@H]1CC(=O)NCCCC[C@@H](C(=O)O)NC(=O)[C@H](Cc2ccc3ccccc3c2)NC(=O)[C@H](CCCNC(=N)N)NC(=O)[C@@H](Cc2ccc3ccccc3c2)NC(=O)[C@H](Cc2c[nH]c3ccccc23)NC1=O [Example 16, Ac-cyclo(-Asp-Trp-D-Nal 2-Arg-Nal 2-Lys)-OH] (Ac-DW[d2Nal]R[2Nal]K-OH; lactam 1-6)	partial agonist	> 1000	1100	17	10	antagonist	–	antagonist	3.55	0.1	–	4	–	0	–
CC(=O)N[C@H]1CC(=O)NCCCC[C@@H](C(=O)O)NC(=O)[C@H](Cc2c[nH]c3ccccc23)NC(=O)[C@H](CCCNC(=N)N)NC(=O)[C@@H](Cc2ccc3ccccc3c2)NC(=O)[C@H](Cc2c[nH]cn2)NC1=O [Example 14, Ac-cyclo(-Asp-His-D-Nal 2-Arg-Trp-Lys)-OH]	agonist	4420	181	191	55	antagonist	–	antagonist	186	2	1	16	–	–	–
CCNC(=O)[C@@H]1CCCCNC(=O)C[C@H](NC(C)=O)C(=O)N[C@@H](Cc2c[nH]c3ccccc23)C(=O)N[C@H](Cc2ccc3ccccc3c2)C(=O)N[C@@H](CCCNC(=N)N)C(=O)N[C@@H](Cc2ccc3ccccc3c2)C(=O)N1 [Example 17, Ac-cyclo(-Asp-Trp-D-Nal 2-Arg-Nal 2-Lys)-NH—CH2—CH3] (Ac-DW[d2Nal]R[2Nal]K-NHEt; lactam 1-6)	partial agonist	> 1000	194	3	1	antagonist	9.12	antagonist	1.74	0.03	–	20	–	32	–

The next compounds have a lower Ki [2] than those just listed; values first:

agonist/antagonist status as to MC1-R [1]	EC50 [1] [nM]	Ki [2] [nM]	Ki (hMC5-R) [nM]	Ki (hMC3-R) [nM]	agonist/antagonist status as to MC3-R (hMC3-R (HEK-293 cells); cAMP assay)	Kb (hMC3-R (HEK-293 cells)) [nM]	agonist/antagonist status as to MC4-R (hMC4-R (HEK-293 cells))	Kb (hMC4-R (HEK-293 cells)) [nM]	Ki (hMC4-R) [nM]	EC50 (hMC3-R (HEK-293 cells); cAMP assay, read-out: EC50 as to MC3-R) [nM]	SMILES	Percent Increase (Decrease) In Aggregate Food Intake After ICV Administration of Peptide Compared to Vehicle (Saline) (rats; 1 nmol) [%]	agonist/antagonist status at MC1-R ([1]; peptide at 1 μM concentration)	Percent Increase (Decrease) In Aggregate Food Intake After ICV Administration of Peptide Compared to Vehicle (Saline) (rats; 0.3 nmol) [%]	cumulative food intake compared to vehicle (male Sprague-Dawley rats)
partial agonist	–	119	–	–	–	–	–	–	–	–	CCCC[C@H](NC(C)=O)C(=O)N[C@H]1CC(=O)NCCCC[C@@H](C(=O)O)NC(=O)[C@H](Cc2ccc3ccccc3c2)NC(=O)[C@H](CCCNC(=N)N)NC(=O)[C@@H](Cc2ccc3ccccc3c2)NC(=O)[C@H](Cc2c[nH]c3ccccc23)NC1=O [Example 13, Ac-Nle-cyclo(-Asp-Trp-D-Nal 2-Arg-Nal 2-Lys)-OH] (Ac-[Nle]DW[d2Nal]R[2Nal]K-OH; lactam 2-7)	–	–	–	–
inactive	–	107	4	1	antagonist	51.3	antagonist	2.04	0.03	–	CC(=O)N[C@H]1CC(=O)NCCCC[C@@H](C(=O)N(C)C)NC(=O)[C@H](Cc2ccc3ccccc3c2)NC(=O)[C@H](CCCNC(=N)N)NC(=O)[C@@H](Cc2ccc3ccccc3c2)NC(=O)[C@H](Cc2c[nH]c3ccccc23)NC1=O [Example 18, Ac-cyclo(-Asp-Trp-D-Nal 2-Arg-Nal 2-Lys)-N(CH3)2] (Ac-DW[d2Nal]R[2Nal]K-NMe2; lactam 1-6)	24	–	24	–
partial agonist	57	3	–	–	–	–	–	–	–	–	CCCC[C@H](NC(C)=O)C(=O)N[C@H]1CC(=O)NCCCC[C@@H](C(=O)O)NC(=O)[C@H](Cc2c[nH]c3ccccc23)NC(=O)[C@H](CCCNC(=N)N)NC(=O)[C@@H](Cc2ccc3ccccc3c2)NC(=O)[C@H](Cc2c[nH]cn2)NC1=O [Example 11, Ac-Nle-cyclo(-Asp-His-D-Nal 2-Arg-Trp-Lys)-OH]	24	–	–	–
partial agonist	5	0.2	0.2	0.3	antagonist	–	antagonist	7.59	0.02	–	CCCC[C@H](NC(C)=O)C(=O)N[C@H]1CC(=O)NCCCC[C@@H](C(=O)O)NC(=O)[C@H](Cc2ccc3ccccc3c2)NC(=O)[C@H](CCCNC(=N)N)NC(=O)[C@@H](Cc2ccc3ccccc3c2)NC(=O)[C@H](Cc2c[nH]cn2)NC1=O [Example 12, Ac-Nle-cyclo(-Asp-His-D-Nal 2-Arg-Nal 2-Lys)-OH] (Ac-[Nle]DH[d2Nal]R[2Nal]K-OH; lactam 2-7)	48	–	36	increase in food intake
